Like-named read-outs stand apart in the source and are kept apart here.

Assay type in all cases: in vivo
For assay [1], the system named is Puccinia recondita f.sp. tritici. Description: Puccinia recondita f.sp. tritici (wheat brown rust) leaf disk assay. The settings on record: foliar, 216 h, preventive, nine days after inoculation, read-out: control of fungal infection, Puccinia recondita f.sp. tritici.
Assay [2] deals with Erysiphe graminis f.sp. tritici. Description: Erysiphe graminis f.sp. tritici (wheat powdery mildew) leaf disk assay. The settings on record: Blumeria graminis, foliar, 96 h, preventive, four days after inoculation, read-out: control of fungal infection, Erysiphe graminis fsp. tritici.
A further assay deals with Pyricularia oryzae. Description: whole plant or invertebrate. The settings on record: foliar, 96 h.
Where [3] appears, read: read-out: control of fungal infection, Pyricularia oryzae (at least 80% list).
The mark [4] stands for this setting: read-out: control of fungal infection, Pyricularia oryzae (at least 60% list).

Regarding `Fc1ccc(C(F)(F)F)c(CON=C2CC3CCC(C2)N3c2ncnc3sccc23)c1` [Example 5.234], the pest or weed control at 200 ppm (in assay [1]; in assay [2]; with Pyricularia oryzae (setting [3])) was at least 80% each time. On to `Cn1cc(C(=O)N2[C@@H]3CC[C@H]2CC(Oc2cccc(C(F)(F)F)n2)C3)c(C(F)(F)F)c1` (stereo partly drawn) [Example 2.221], for which the pest or weed control at 200 ppm in the assay on Pyricularia oryzae (setting [4]) was at least 60%. For the compound `FC(F)(F)c1ccnc(OC2C[C@H]3CC[C@@H](C2)N3c2ccnc3c(Cl)cccc23)c1` (stereo partly drawn) [Example 2.195], the pest or weed control at 200 ppm in the assay with Pyricularia oryzae (setting [4]) was at least 60%.

Consider `CCCNC(=O)C=C1CC2CCC(C1)N2c1ncnc2sccc12` [Example 3.31], for which the pest or weed control at 200 ppm (in assay [1]; with Pyricularia oryzae (setting [3])) was at least 80% each time. In the case of `FC(F)(F)C(F)(F)c1csc(CC2CC3CCC(C2)N3c2ncnc3sccc23)n1` (stereo not drawn) [Example 7.20], the pest or weed control at 200 ppm in assay [1] is at least 80%; in the assay with Pyricularia oryzae (setting [4]), at least 60%. Regarding `Cc1nc(ON=C2CC3CCC(C2)N3c2ncnc3sccc23)cc(-c2ccccc2)n1` [Example 5.236], in the assay with Pyricularia oryzae (setting [4]), the pest or weed control at 200 ppm was at least 60%. In the case of `CSc1nccc(N2[C@@H]3CC[C@H]2CC(Oc2cccc(C(F)(F)F)n2)C3)n1` (stereo partly drawn) [Example 2.98], the pest or weed control at 200 ppm in the assay on Pyricularia oryzae (setting [4]) was at least 60%. As for `COc1cc(OCC=C2CC3CCC(C2)N3c2ncnc3sccc23)ccc1Cl` [Example 3.24], the pest or weed control at 200 ppm (in assay [1]; in the assay on Pyricularia oryzae (setting [3])) was at least 80% in each case. For the compound `Cc1csc2c(N3[C@@H]4CC[C@H]3CC(Oc3ccc(C(F)(F)F)cn3)C4)ncnc12` (stereo partly drawn) [Example 2.81], the pest or weed control at 200 ppm in the assay with Pyricularia oryzae (setting [4]) is at least 60%.

Regarding `CCCCOCON=C1CC2CCC(C1)N2c1ncnc2sccc12` [Example 5.178], the pest or weed control at 200 ppm in assay [1] is at least 80%; in assay [2], at least 80%; with Pyricularia oryzae (setting [4]) it was at least 60%.

As to `O=c1oc2cc(OC3C[C@H]4CC[C@@H](C3)N4c3ncnc4sccc34)ccc2s1` (stereo partly drawn) [Example 2.69], the pest or weed control at 200 ppm in the assay on Pyricularia oryzae (setting [4]) is at least 60%. The same measure, in the same setting: as for `Cc1nn(C)c2nccc(N3[C@@H]4CC[C@H]3CC(Oc3ccc(Oc5ccc(C(F)(F)F)cn5)cc3)C4)c12` (stereo partly drawn) [Example 2.160], the figure is at least 60%; as for `Fc1ccc(OC2C[C@H]3CC[C@@H](C2)N3c2ncnc3sccc23)cc1F` (stereo partly drawn) [Example 2.18], at least 60%. With `c1ccc(CNC2C[C@H]3CC[C@@H](C2)N3c2ncnc3sccc23)cc1` (stereo partly drawn) [Example 4.10], in the assay on Pyricularia oryzae (setting [3]), the pest or weed control at 200 ppm is at least 80%. For the compound `FC(F)(F)c1ccnc(OC2C[C@H]3CC[C@@H](C2)N3c2ncnc3ccccc23)c1` (stereo partly drawn) [Example 2.84], the pest or weed control at 200 ppm is at least 80% in assay [1], at least 80% in assay [2] and at least 60% with Pyricularia oryzae (setting [4]). Consider `Fc1ccc(OC2C[C@H]3CC[C@@H](C2)N3c2ncnc3sccc23)cc1C(F)(F)F` (stereo partly drawn) [Example 2.52], for which the pest or weed control at 200 ppm in the assay with Pyricularia oryzae (setting [4]) was at least 60%. The same measure, in the same setting: as for `Clc1cc(Br)ccc1OC1C[C@H]2CC[C@@H](C1)N2c1ncnc2sccc12` (stereo partly drawn) [Example 1.28], the figure is at least 60%. Still for that read-out and setting: with `Cn1cc(C(=O)N2[C@@H]3CC[C@H]2CC(Oc2cc(C(F)(F)F)ccn2)C3)c(C(F)(F)F)c1` (stereo partly drawn) [Example 2.219] the figure was at least 60%. As for `CC(C)(C)c1csc(CC2CC3CCC(C2)N3c2ncnc3sccc23)n1` (stereo not drawn) [Example 7.17], the values for the pest or weed control at 200 ppm with Pyricularia oryzae (setting [4]) and in the assay with Pyricularia oryzae (setting [3]) were at least 60% and at least 80%, respectively. `CCc1ncnc(N2C3CCC2CC(=CC(=O)Nc2ccc(Cl)cc2)C3)c1Cl` [Example 3.11]: the pest or weed control at 200 ppm in assay [1] was at least 80%; in the assay on Pyricularia oryzae (setting [4]), at least 60%. With `OC1(Cc2ccccc2)CC2CCC(C1)N2c1ncnc2sccc12` (stereo not drawn) [Example 7.14], the pest or weed control at 200 ppm in the assay with Pyricularia oryzae (setting [3]) was at least 80%. Turning to `Fc1ccc(F)c(OC2C[C@H]3CC[C@@H](C2)N3c2ncnc3sccc23)c1` (stereo partly drawn) [Example 2.25], the pest or weed control at 200 ppm was at least 80% in assay [2] and at least 60% with Pyricularia oryzae (setting [4]). For `CCc1ncnc(N2C3CCC2CC(CC(=O)Nc2ccc(Cl)cc2)C3)c1Cl` (stereo not drawn) [Example 7.22], the results for the pest or weed control at 200 ppm (in assay [1]; in the assay on Pyricularia oryzae (setting [4]); in the assay on Pyricularia oryzae (setting [3])) were at least 80%, at least 60% and at least 80%, respectively.

As for `CCc1ncnc(N2[C@@H]3CC[C@H]2CC(Oc2ccc4sc(=O)oc4c2)C3)c1Cl` (stereo partly drawn) [Example 2.177], in the assay with Pyricularia oryzae (setting [4]), the pest or weed control at 200 ppm was at least 60%.

For `COCc1ncnc(N2[C@@H]3CC[C@H]2CC(Oc2cccc(C(F)(F)F)n2)C3)c1OC` (stereo partly drawn) [Example 2.137], the pest or weed control at 200 ppm in assay [1] and in assay [2] was at least 80% throughout. Consider `CCc1ncnc(N2C3CCC2CC(=NOCc2ccccc2-c2ccccc2)C3)c1Cl` [Example 5.35], for which the pest or weed control at 200 ppm in assay [1] and in assay [2] was at least 80% throughout. `CCc1ncnc(N2C3CCC2CC(=NOCc2cccc(Cl)c2Cl)C3)c1Cl` [Example 5.59]: the pest or weed control at 200 ppm in assay [1] and in assay [2] was at least 80% throughout. Consider `FC(F)(F)Sc1ccc(CON=C2CC3CCC(C2)N3c2ncnc3sccc23)cc1` [Example 5.230], for which the pest or weed control at 200 ppm in assay [1] and in assay [2] was at least 80% in each case. On to `CCc1ncnc(N2C3CCC2CC(=NOCc2cccc(Oc4ccccc4)c2)C3)c1Cl` [Example 5.18], for which the pest or weed control at 200 ppm in assay [1] and in assay [2] was at least 80% throughout. As to `CCc1ncnc(N2C3CCC2CC(=NOCC2COc4ccccc4O2)C3)c1Cl` (stereo not drawn) [Example 5.93], the pest or weed control at 200 ppm in assay [1] and in assay [2] was at least 80% throughout. Turning to `CCc1ncnc(N2C3CCC2CC(=NOCc2noc(-c4ccc(C(F)(F)F)cc4)n2)C3)c1Cl` [Example 5.126], the pest or weed control at 200 ppm in assay [1] and in assay [2] was at least 80% in each case. Take `CCc1ncnc(N2C3CCC2CC(=NOCc2ccc4ccccc4n2)C3)c1Cl` [Example 5.89]: the pest or weed control at 200 ppm in assay [1] and in assay [2] was at least 80% throughout. As for `CCc1ncnc(N2C3CCC2CC(=NOCc2cccc(OC(F)F)c2)C3)c1Cl` [Example 5.65], the pest or weed control at 200 ppm in assay [1] and in assay [2] was at least 80% in each case. For `CCc1ncnc(N2C3CCC2CC(=NOCc2cc(F)c(F)c(F)c2)C3)c1Cl` [Example 5.67], the pest or weed control at 200 ppm in assay [1] and in assay [2] was at least 80% each time. Take `Cc1nn(C)c2nccc(N3[C@@H]4CC[C@H]3CC(Oc3ccc(Cl)cc3)C4)c12` (stereo partly drawn) [Example 1.138]: the pest or weed control at 200 ppm in the assay on Pyricularia oryzae (setting [4]) was at least 60%. Regarding `CCCCNC1C[C@H]2CC[C@@H](C1)N2c1ncnc2sccc12` (stereo partly drawn) [Example 4.9], the pest or weed control at 200 ppm in the assay with Pyricularia oryzae (setting [3]) is at least 80%. As to `CCc1ncnc(N2C3CCC2CC(=NOCc2cccc(CCl)c2)C3)c1Cl` [Example 5.45], the pest or weed control at 200 ppm in assay [1] and in assay [2] was at least 80% in each case. On to `CCc1ncnc(N2C3CCC2CC(=NOCc2ccc(-c4ccccc4C#N)cc2)C3)c1Cl` [Example 5.58], for which the pest or weed control at 200 ppm in assay [1] and in assay [2] was at least 80% each time. Regarding `CCc1ncnc(C(C)c2ncnc(N3C4CCC3CC(=NOc3ncc(C(F)(F)F)cc3Cl)C4)c2Cl)c1Cl` (stereo not drawn) [Example 5.124], the pest or weed control at 200 ppm with Pyricularia oryzae (setting [4]) was at least 60%.

With `O=C(c1ccccc1)c1ccc(OC2C[C@H]3CC[C@@H](C2)N3c2ncnc3sccc23)cc1` (stereo partly drawn) [Example 2.39], in the assay with Pyricularia oryzae (setting [4]), the pest or weed control at 200 ppm was at least 60%.

These data come from patent US20100331348A1, “TROPANE DERIVATIVES USEFUL AS PESTICIDES” (SYNGENTA CROP PROTECTION, INC., priority 2007, published 2010).
